# Measured values: patent US11834663B2, “Fibrotic treatment” (Monash University, priority 2015, dated 2023)
# Tested on: transverse heart sections from Ang II-infused WT mice
# Assay: Angiotensin II infusion prevention model: cardiac hypertrophy, fibrosis, ROS and inflammatory markers
# Type: in vivo, mouse
# Settings: Ang II + HFI-419, 4 weeks
# Protocol: There are 8 different sets of in vivo experiments in this study: • A) Phenotypic characterisation of the heart and blood vessels in global IRAP knockout mice and their WT controls treated for 4 weeks with Angiotensin (Ang) II (800 ng/kg/min; s.c.) where mouse hearts and blood vessels were compared to tissue obtained from young WT and IRAP^−/− mice treated with saline. • B) Prevention of Ang II-induced changes in the cardiovascular system following IRAP inhibitor treatment. In the prevention model, WT mice were treated with Ang II (800 ng/kg/min; s.c.)±the IRAP inhibitor (HFI-419; 500 ng/kg/min for 28 days) or HFI-vehicle (1 DMSO:3 HBC). • C) Phenotypic characterisation of the aged heart, kidney and blood vessels in the global IRAP knockout mice where aged WT and IRAP^−/− mouse hearts, kidneys and blood vessels were compared to tissue obtained from young WT and IRAP^−/− mice. • D) Reversal of the age-induced changes in the cardiovascular system following IRAP inhibitor treatment. In the reversal model, aged WT mice were treated with either saline, IRAP inhibitor (HFI-419 at 500 ng/kg/min; compound 1 at 500 ng/kg/min; compound 2 at 50 ng/kg/min) or HFI-vehicle (1 DMSO: 3 HBC) for 4 weeks. • E) Prevention of ischemic-reperfusion injury in isolated hearts taken from aged global IRAP knockout mice and aged IRAP inhibitor (HFI-419 at 500 ng/kg/min; s.c.) treated WT mice compared to age-matched vehicle-treated (1 DMSO:3 HBC; s.c.) WT controls. • F) Phenotypic characterization of cardiac function using echocardiography in the aged global IRAP knockout mice compared to aged and young WT mice. • G) Phenotypic characterization of liver steatosis in IRAP knockout mice in a high fat diet (HFD) model. • H) Reversal of the salt-induced fibrosis in the liver following IRAP inhibitor treatment.
# To measure collagen deposition, frozen sections of heart, kidney or aorta (all 5 μm thickness) were air dried for 10 minutes and were brought through 3 times xylene (2 minutes each), and 3 times absolute alcohol washes before being rinsed in tap H2O for 30 seconds. Staining with an optimal concentration of picrosirius red (in this instance 0.05% picrosirius red diluted in saturated picric acid) was performed and left for an hour. Sections were then rinsed in water and differentiated in 0.01 M HCl for 2 minutes, followed by dehydration via 3 times absolute alcohol washes. Then, slides were brought through 3 times xylene washes before being cover slipped according to standard histological techniques using DPX as the mounting medium. Images were taken under ×20 magnification, using bright field (Olympus, BX51) and circularized polarized light microscopy (DM IRB, Leica) while percentage of positive interstitial collagen staining per total field of view was quantified using ImageJ 1.46 software (Java, NIH), and averaged out from a total of eight views as the final percentage collagen content in a particular animal.
# Ventricular weight (VW) was compared to the body weight (BW) as a ratio of VW:BW (mg/g), as well as comparison of VW to tibial length (TL) in as a ratio of VW:TL (mg/mm) respectively. The hearts that were embedded in OCT and frozen were transversely sectioned in a cryostat at 5 μm thickness, and stained with Hematoxylin and Eosin (Amber Scientific) for morphological examination of cell structure. The average of 100 cardiomyocytes per heart section was performed under 60× magnification and analyzed using Image J.
# Immunostaining was performed on either 5 μm thick transverse frozen heart sections or 5 μm thick frozen thoracic aortic. These sections were air dried and fixed in ice-cold acetone for approximately 15 minutes before washing with 0.01M PBS buffer (3×10 minutes). Sections were then incubated with 10% goat serum in 0.01M PBS for 30 minutes to reduce non-specific binding. […]
structure (smiles),measurement,setting,value
CCOC(=O)C1=C(NC(C)=O)Oc2cc(O)ccc2C1c1cccnc1 (stereo not drawn) [HFI-419],"Ang II-mediated increase in cardiac hypertrophy (cardiomyocyte cross-sectional area, H&E)",FIG. 5a,prevented
same,"interstitial collagen expression in heart (picrosirius red, brightfield)",FIG. 5b,significantly decreased
same,protein expression of TGF-β1 in heart (western blot),FIG. 6,decreased
same,vimentin staining in heart (marker for fibroblast expression),FIG. 6,no change
same,α-SMA staining in heart (marker for myofibroblast expression),FIG. 6,decreased
same,Ang II-induced increase in cardiac superoxide generation (DHE),FIG. 7,prevented
same,ICAM-1 expression and protein content in heart,FIG. 7,decreased
same,MCP-1 expression in heart,FIG. 7,decreasing
same,P-IκBα expression in heart,FIG. 7,decreased
same,expression of NOX-2 in heart,FIG. 7,no effect
same,macrophage (F4/80) expression in heart,FIG. 7,decreasing
same,perivascular expression of TGF-β1 in heart,"immunofluorescence, FIG. 6",decreased
